Values quoted from earlier work, collected in patent US8679548B2, “Active bromine containing biocidal compositions and their preparation” (Albemarle Corporation, priority 1998, dated 2014).

Compound | Vapor Pressure (25° C.) [mm]
BrBr [Bromine (Br2), Bromine] | 214
ClBr [Bromine Chloride (BrCl), Bromine Chloride] | 1800
